The values that follow come from ChEMBL document CHEMBL3871307, “Discovery of Chromane Propionic Acid Analogues as Selective Agonists of GPR120 with in Vivo Activity in Rodents” (ACS Med Chem Lett, 2017).

The test system of data set [1] is Mus musculus. Description: Glucose lowering effect in C57BL/6 transverse aortic constriction mouse assessed as reduction in blood glucose at 3 to 30 mg/kg, po via gavage pretreated for 60 mins followed by dextrose challenge measured up to 120 mins post glucose challenge by OGTT. Format: functional, organism-based.
Data set [2] addresses Free fatty acid receptor 1 (Homo sapiens, UniProt O14842). The data set can be described thus: Agonist activity at human GPR40 expressed in HEK293 cells assessed as increase in IP1 accumulation after 60 mins by HTRF assay. The class given is functional, cell-based. On the technique in general: TR-FRET usually uses a lanthanide donor and a delayed reading to cut background.

Data set [3] is described as follows: Intrinsic clearance in rat plasma at 0.1 mg/kg administered as iv casette dose by LC/MS/MS analysis. The settings on record: in vivo. Format: ADME, organism-based.
Data set [4] can be described thus: Volume of distribution at steady state in rat plasma at 1 mg/kg, iv or 2 mg/kg, po by LC/MS/MS analysis. The settings on record: read-out: Vdss. The class given is ADME, organism-based.

The structures appear in SMILES notation. pEC50: −log10 of the molar value. Active and inactive are the calls of the source. No cut-off for these calls is given here. Where only a bound is given, the exact number is not on record here.

Sequence of Free fatty acid receptor 1 (O14842 whole entry): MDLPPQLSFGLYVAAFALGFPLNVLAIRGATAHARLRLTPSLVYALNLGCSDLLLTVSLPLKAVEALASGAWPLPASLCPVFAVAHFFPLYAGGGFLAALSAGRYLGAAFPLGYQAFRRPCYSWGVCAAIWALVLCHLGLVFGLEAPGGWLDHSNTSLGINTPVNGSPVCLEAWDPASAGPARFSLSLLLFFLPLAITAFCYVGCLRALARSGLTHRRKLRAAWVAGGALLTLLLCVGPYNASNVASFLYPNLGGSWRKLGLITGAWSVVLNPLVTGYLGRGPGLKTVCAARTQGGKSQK

The pEC50 is the negative decadic logarithm of the EC50, by convention in mol/L. For the compound `CO[C@H]1C[C@H](Oc2cc(F)c(F)c(-c3ccc4c(c3)CC[C@H](CCC(=O)O)O4)n2)C1`, in data set [1], the result was Active. Further, the pEC50 in data set [2] was < 5.00. The compound further showed a CL in data set [3] of 560 mL/min/kg. Also, in data set [4], the Vd was found to be 0.3 L/kg.
